The term pKi denotes the negative decadic logarithm of the Ki, by convention in mol/L.

This is an account of results in patent publication US6958402B2, “3-(imidazolyl)-2-alkoxypropanoic acids” (Pfizer, Inc., priority 2002, dated 2005).

Experiment [1] deals with T1, TAFIa (activated human TAFI) (Homo sapiens, UniProt Q96IY4).
T1 sequence (Q96IY4 115-423): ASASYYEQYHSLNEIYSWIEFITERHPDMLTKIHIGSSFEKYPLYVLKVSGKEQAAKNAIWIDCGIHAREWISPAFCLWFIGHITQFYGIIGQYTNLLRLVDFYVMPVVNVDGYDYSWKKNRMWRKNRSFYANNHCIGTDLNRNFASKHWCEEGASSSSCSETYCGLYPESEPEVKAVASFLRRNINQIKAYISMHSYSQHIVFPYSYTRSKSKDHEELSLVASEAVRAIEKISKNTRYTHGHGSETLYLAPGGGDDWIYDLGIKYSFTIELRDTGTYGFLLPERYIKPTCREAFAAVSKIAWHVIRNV
Nature of the experiment: Assay for TAFIa inhibition (Ki determination, FAAL substrate hydrolysis). As to conditions: Ki calculated from IC50 with Cheng-Prusoff equation; substrate furylacryloyl-alanyl-lysine, 24° C.; read-out: Ki (TAFla). The class given is biochemical. On the procedure:
The compounds are incubated with activated TAFI and a standard substrate for TAFIa, the rate of hydrolysis of the substrate is determined and compared to the rate of hydrolysis in the absence of the compounds, and the amount of inhibition expressed in terms of Ki.
Human TAFI (recombinant or purified) was activated by incubating 20 μl of stock solution (360 μg/ml) with 10 μl of human thrombin (10NIH units/ml), 10 μl of rabbit thrombomodulin (30 μg/ml), 6 μl calcium chloride (50 mM) in 50 μl of 20 mM HEPES (N-[2-hydroxyethyl]piperazine-N-[2-ethanesulfonic acid]) buffer containing 150 mM sodium chloride and 0.01% TWEEN 80 (polyoxyethylene-sorbitan monooleate) pH 7.6 for 20 minutes at 22° C. At the end of the incubation period, thrombin was neutralised by the addition of 10 μL of PPACK (D-Phe-Pro-Arg chloromethyi ketone) (100 nM). The resulting TAFIa. solution was stored on ice for 5 minutes and finally diluted with 175 μl of HEPES buffer.
(§1) A number of different dilutions of the test compound in water were made up. To 20 μl of each dilution was added 150 μl of HEPES buffer and 10 μl of TAFIa, which was then pre-incubated for 15 minutes at 24° C. To each dilution was then added 20 μl furylacryloyl-alanyl-lysine (FAAL) at a standard concentration. Substrate turnover was measured by reading the absorbance of the reaction mixture at 330 nm every 15 seconds for 30 minutes. The reaction was performed at 24° C. and samples were mixed for 3 seconds prior to each absorbance reading.
(§2) A graph of % inhibition against test compound concentration was then plotted; from which was calculated the IC50 value. The Ki value was then calculated using the Cheng-Prusoff equation.
For the first control, the assay was performed as above, but with 20 μl of water rather than a dilution of the test compound.

A further experiment deals with T2, human CPN (Homo sapiens, UniProt P15169).
T2 sequence (P15169 21-458): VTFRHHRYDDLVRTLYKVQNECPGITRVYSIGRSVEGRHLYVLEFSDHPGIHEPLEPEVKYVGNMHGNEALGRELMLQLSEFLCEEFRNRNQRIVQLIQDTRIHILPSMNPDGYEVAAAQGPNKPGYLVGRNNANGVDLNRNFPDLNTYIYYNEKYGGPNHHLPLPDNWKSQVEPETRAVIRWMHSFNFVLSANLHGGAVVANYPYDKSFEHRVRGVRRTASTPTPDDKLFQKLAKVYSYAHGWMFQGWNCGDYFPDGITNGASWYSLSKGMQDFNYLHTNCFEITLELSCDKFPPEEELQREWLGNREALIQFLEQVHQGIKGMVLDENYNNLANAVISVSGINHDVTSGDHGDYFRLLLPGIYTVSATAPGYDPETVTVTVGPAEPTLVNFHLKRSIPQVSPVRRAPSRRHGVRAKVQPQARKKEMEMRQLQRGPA
T2 sequence (P22792 22-545 partner): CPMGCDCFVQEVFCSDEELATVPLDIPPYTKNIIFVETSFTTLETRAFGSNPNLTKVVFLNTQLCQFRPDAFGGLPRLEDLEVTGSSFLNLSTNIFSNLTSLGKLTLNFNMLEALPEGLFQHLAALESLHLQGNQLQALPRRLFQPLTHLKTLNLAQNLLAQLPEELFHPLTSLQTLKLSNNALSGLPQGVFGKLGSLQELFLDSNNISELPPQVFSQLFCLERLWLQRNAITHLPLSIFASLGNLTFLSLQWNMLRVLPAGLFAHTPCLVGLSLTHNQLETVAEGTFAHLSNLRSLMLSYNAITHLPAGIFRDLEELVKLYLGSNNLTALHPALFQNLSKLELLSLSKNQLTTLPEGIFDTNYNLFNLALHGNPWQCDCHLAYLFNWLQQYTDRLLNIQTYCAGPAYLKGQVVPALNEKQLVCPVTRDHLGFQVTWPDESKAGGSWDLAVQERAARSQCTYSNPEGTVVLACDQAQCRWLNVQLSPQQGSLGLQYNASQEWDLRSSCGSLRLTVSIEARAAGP
Nature of the experiment: CPN Ki determination (TAFIa assay with human CPN substituted for TAFIa). The class given is biochemical. On the procedure: as §1, §2
The selectivity of the compounds of the present invention for TAFIa over CPN was determined by calculating the Ki of the compounds of the present invention for CPN, then comparing it to the Ki for TAFIa. The Ki was calculated using the assay for the calculation of TAFIa Ki, but substituting 10 μl of human CPN for 10 μl of TAFIa.

pKi: −log10 of the molar value. Where a name gives a salt, the structure may show the parent alone. A value given as a limit tells only on which side of the number the result lay.

Take `NCCOC(Cc1cn(CCc2ccccc2)cn1)C(=O)O` (stereo not shown) [Example 4]: the negative logarithm of the Ki (pKi) in experiment [1] was 8.00.
As for `NCCO[C@@H](Cc1cn(CCC2CCCCC2)cn1)C(=O)O` [Example 5, (2S)-(−)-2-(2-Aminoethoxy)-3-[1-(2-cyclohexylethyl)-1H-imidazol-4-yl]propanoic acid], in experiment [1], the pKi was 8.00.
Still for that read-out and setting: to `NCCOC(Cc1cn(-c2cccc(Oc3ccccc3)c2)cn1)C(=O)O` (stereo not shown) [Example 40, 2-(2-Aminoethoxy)-3-[1-(3-phenoxyphenyl)-1H-imidazol-4-yl]propanoic acid dihydrochloride] belongs 7.85; to `C[C@H](CN)O[C@@H](Cc1cn(-c2ccc(OC3CCCCC3)cc2)cn1)C(=O)O` [Example 49, (2S)-2-{[(1R)-2-Amino-1-methylethyl]oxy}-3-{1-[4-(cyclohexyloxy)phenyl]-1H-imidazol-4-yl}propanoic acid], 8.05.
Turning to `C[C@H](CN)O[C@@H](Cc1c[nH]cn1)C(=O)O` [Example 51, (2S)-2-{[(1R)-2-Amino-1-methylethyl]oxy}-3-(1H-imidazol-4-yl)propanoic acid], the pKi in experiment [1] is 7.59; on human CPN (same assay with 10 μl human CPN in place of TAFIa) it was less than 5.00. Besides, on human CPN (Ki for CPN compared to Ki for TAFIa), the “Selectivity for TAFIa over CPN” value is given as more than 380.
